One may read the IC50 as the concentration needed to halve the response being measured. One may read the EC50 as the concentration at which the effect is half-maximal.

SMILES strings stand for the structures.

In test [1] the target is T1, HCV NS3/4A protease complex (UniProt P27958, C1454S/C1711G, species not given).
T1 construct: fused on or other part: Three-lysine solubilising tail at the C-terminus of NS4A
Kind of test: Recombinant HCV NS3/4A protease complex FRET peptide assay (strain not stated). The class given is biochemical. The note with it: HCV NS3/4A protease enzyme assay, read-out: IC50 range. The text has this:
Recombinant HCV NS3/4A Protease Complex FRET Peptide Assay
The purpose of this in vitro assay was to measure the inhibition of HCV NS3 protease complexes, derived from the BMS, H77C or J416S strains, as described below, by compounds of the present invention. This assay provides an indication of how effective compounds of the present invention would be in inhibiting HCV proteolytic activity.
Serum from an HCV-infected patient was obtained from Dr. T. Wright, San Francisco Hospital. An engineered full-length cDNA (compliment deoxyribonucleic acid) template of the HCV genome (BMS strain) was constructed from DNA fragments obtained by reverse transcription-PCR (RT-PCR) of serum RNA (ribonucleic acid) and using primers selected on the basis of homology between other genotype 1a strains. From the determination of the entire genome sequence, a genotype 1a was assigned to the HCV isolate according to the classification of Simmonds et al. (See P Simmonds, K A Rose, S Graham, S W Chan, F McOmish, B C Dow, E A Follett, P L Yap and H Marsden, J. Clin. Microbiol., 31(6), 1493–1503 (1993)). […] The infectious clones, H77C (1a genotype) and J4L6S (1b genotype) were obtained from R. Purcell (NIH) and the sequences are published in Genbank (AAB67036, see Yanagi, M., Purcell, R. H., Emerson, S. U. and Bukh, J. Proc. Natl. Acad. Sci. U.S.A. 94(16),8738–8743 (1997); AF054247, see Yanagi, M., St Claire, M., Shapiro, M., Emerson, S. U., Purcell, R. H. and Bukh, J, Virology 244 (1), 161–172. (1998)).
The BMS, H77C and J4L6S strains were used for production of recombinant NS3/4A protease complexes. DNA encoding the recombinant HCV NS3/4A protease complex (amino acids 1027 to 1711) for these strains were manipulated as described by P. Gallinari et al. (see Gallinari P, Paolini C, Brennan D, Nardi C, Steinkuhler C, De Francesco R. Biochemistry. 38(17):5620–32, (1999)). Briefly, a three-lysine solubilizing tail was added at the 3′-end of the NS4A coding region. The cysteine in the P1 position of the NS4A-NS4B cleavage site (amino acid 1711) was changed to a glycine to avoid the proteolytic cleavage of the lysine tag. Furthermore, a cysteine to serine mutation was introduced by PCR at amino acid position 1454 to prevent the autolytic cleavage in the NS3 helicase domain. The variant DNA fragment was cloned in the pET21b bacterial expression vector (Novagen) and the NS3/4A complex was expressed in Escherichia. coli strain BL21 (DE3) (Invitrogen) following the protocol described by P. Gallinari et al. (see Gallinari P, Brennan D, Nardi C, Brunetti M, Tomei L, Steinkuhler C, De Francesco R., J. Virol. 72(8):6758–69 (1998)) with modifications. Briefly, NS3/4A expression was induced with 0.5 mM Isopropyl β-D-1-thiogalactopyranoside (IPTG) for 22 hr at 20° C. A typical fermentation (10L) yielded approximately 80 g of wet cell paste. The cells were resuspended in lysis buffer (10 mL/g) consisting of 25 mM N-(2-Hydroxyethyl)Piperazine-N′-(2-Ethane Sulfonic acid) (HEPES), pH7.5, 20% glycerol, 500 mM Sodium Chloride (NaCl), 0.5% Triton-X100, 1 ug/ml lysozyme, 5 mM Magnesium Chloride (MgCl2), lug/ml Dnasel, 5 mM β-Mercaptoethanol (βME), Protease inhibitor—Ethylenediamine Tetraacetic acid (EDTA) free (Roche), homogenized and incubated for 20 mins at 4° C. The homogenate was sonicated and clarified by ultra-centrifugation at 235000 g for 1 hr at 4° C. Imidazole was added to the supernatant to a final concentration of 15 mM and the pH adjusted to 8.0. The crude protein extract was loaded on a Nickel-Nitrilotriacetic acid (Ni-NTA) column pre-equilibrated with buffer B (25 mM HEPES, pH 8.0, 20% glycerol, 500 mM NaCl, 0.5% Triton-X100, 15 mM imidazole, 5 mM βME). The sample was loaded at a flow rate of 1 mL/min. The column was washed with 15 column volumes of buffer C (same as buffer B except with 0.2% Triton-X100). The protein was eluted with 5 column volumes of buffer D (same as buffer C except with 200 mM Imidazole). […]

Test [2] has as its system HCV replicon in Huh7 cells. Kind of test: HCV replicon cell-based assay. Further details: species or system HCV strain 1B. The conditions noted are these: Hepatitis C virus, Huh-7, 96 h, HCV replicon, 4 days, read-out: EC50 range. From the text:
HCV Replicon Cell-based Assay
An HCV replicon whole cell system was established as described by Lohmann V, Komer F, Koch J, Herian U, Theilmann L, Bartenschlager R., Science 285(5424):110–3 (1999). This system enabled us to evaluate the effects of our HCV Protease compounds on HCV RNA replication. Briefly, using the HCV strain 1B sequence described in the Lohmann paper (Assession number:AJ238799), an HCV cDNA was generated encoding the 5′ internal ribosome entry site (IRES), the neomycin resistance gene, the EMCV (encephalomyocarditis viurs)-IRES and the HCV nonstructural proteins, NS3-NS5B, and 3′ non-translated region (NTR). In vitro transcripts of the cDNA were transfected into the human hepatoma cell line, Huh7. […] Resulting cell lines were characterized for positive and negative strand RNA production and protein production over time.
Huh7 cells, constitutively expressing the HCV replicon, were grown in Dulbecco's Modified Eagle Media (DMEM) containing 10% Fetal calf serum (FCS) and 1 mg/ml G418 (Gibco-BRL). Cells were seeded the night before (1.5×10^4 cells/well) in 96-well tissue-culture sterile plates. Compound and no compound controls were prepared in DMEM containing 4% FCS, 1:100 Penicillin/Streptomysin, 1:100 L-glutamine and 5% DMSO in the dilution plate (0.5% DMSO final concentration in the assay). Compound/DMSO mixes were added to the cells and incubated for 4 days at 37° C. After 4 days, plates were rinsed thoroughly with Phosphate-Buffered Saline (PBS) (3 times 150 μl). The cells were lysed with 25 μl of a lysis assay reagent containing the FRET peptide (RET S1, as described for the in vitro enzyme assay). The lysis assay reagent was made from 5× cell Luciferase cell culture lysis reagent (Promega #E153A) diluted to 1× with distilled water, NaCl added to 150 mM final, the FRET peptide diluted to 10 μM final from a 2 mM stock in 100% DMSO. The plate was then placed into the Cytofluor 4000 instrument which had been set to 340 nm excitation/490 emission, automatic mode for 21 cycles and the plate read in a kinetic mode. EC50 determinations were carried out as described for the IC50 determinations.
As a secondary assay, EC50 determinations from the replicon FRET assay were confirmed in a quantitative RNA assay. Cells were lyzed using the Rneasy kit (Qiagen). Purified total RNA was normalized using RiboGreen (Jones L J, Yue S T, Cheung C Y, Singer V L, Anal. Chem., 265(2):368–74 (1998)) and relative quantitation of HCV RNA expression assessed using the Taqman procedure (Kolykhalov A A, Mihalik K, Feinstone S M, Rice C M, Journal of Virology 74, 2046–2051 (2000)) and the Platinum Quantitative RT-PCR Thermoscript One-Step kit (Invitrogen cat # 11731-015). Briefly, RNA made to a volume of 5 μl (<1 ng) was added to a 20 μl Ready-Mix containing the following: 1.25× Thermoscript reaction mix (containing Magnesium Sulfate and 2-deoxynucleoside 5′-triphosphates (dNTPs)), 3 mM dNTPs, 200 nM forward primer (sequence: 5′-[…]-3′), 600 nM reverse primer (5′-[…]-3′), 100 nM probe (5′-6-FAM-[…]-BHQ-1-3′)(FAM: Fluorescein-aminohexyl amidite; BHQ: Black Hole Quencher), 1 μM Rbx reference dye (Invitrogen cat # 12223-012) and Thermoscript Plus Platinum Taq polymerase mixture. All primers were designed with ABI Prism 7700 software and obtained from Biosearch Technologies, Novato, Calif. Samples containing known concentrations of HCV RNA transcript were run as standards. Using the following cycling protocol (50° C., 30 min; 95° C., 5 min; 40 cycles of 95° C., 15 sec, 60° C., 1 min), HCV RNA expression was quantitated as described in the Perkin Elmer manual using the ABI Prism 7700 Sequence Detector.
The luciferase reporter assay was also used to confirm compound potency in the replicon. Utilization of a replicon luciferase reporter assay was first described by Krieger et al (Krieger N, Lohmann V, and Bartenschlager R, J. Virol. 75(10):4614–4624 (2001)). […]
On the technique in general: In antiviral work, replicon cells carry a viral genome segment that copies itself.

`C=CC1C[C@]1(NC(=O)[C@@H]1C[C@@H](OC(=O)NC2CCCCC2)CN1C(=O)[C@@H](NC(=O)OC(C)(C)C)C(C)(C)C)C(=O)NS(=O)(=O)C1CC1` (stereo partly drawn) [Compound 6, BocNH-P3(t-BuGly)-P2(Hyp(O—CO(NH-cyclohexyl)))-P1(1R,2S VinylAcca)—CONHSO2Cyclopropane]: the IC50 in test [1] was less than 100 nM. Besides, the EC50 in test [2] lay within 1000 to 10000 nM.
For `C=CC1C[C@]1(NC(=O)[C@@H]1C[C@@H](OC(=O)Nc2ccc3c(c2)OCO3)CN1C(=O)[C@@H](NC(=O)OC(C)(C)C)C(C)(C)C)C(=O)NS(=O)(=O)C1CC1` (stereo partly drawn) [Compound 10, BocNH-P3(t-BuGly)-P2(Hyp(O—CO(NH-Benzo[1,3]dioxol-5-yl)))-P1(1R,2S VinylAcca)—CONHSO2Cyclopropane], in that order: 100 to 1000 nM and more than 10000 nM.
In the case of `C=CC1C[C@]1(NC(=O)[C@@H]1C[C@@H](OC(=O)Nc2ccccc2-c2nnc[nH]2)CN1C(=O)[C@@H](NC(=O)OC(C)(C)C)C(C)(C)C)C(=O)NS(=O)(=O)C1CC1` (stereo partly drawn) [Compound 88, BocNH-P3(t-BuGly)-P2(Hyp(O—CO(NH—(2-(4H-[1,2,4]Triazol-3-yl)-phenyl))))-P1(1R,2S VinylAcca)—CONHSO2Cyclopropane], the IC50 in test [1] was less than 100 nM. For the same compound, the EC50 in test [2] is more than 10000 nM.
For `C=CC1C[C@]1(NC(=O)[C@@H]1C[C@@H](OC(=O)NCc2ccccc2C)CN1C(=O)[C@@H](NC(=O)OC(C)(C)C)C(C)(C)C)C(=O)NS(=O)(=O)C1CC1` (stereo partly drawn) [Compound 2, BocNH-P3(t-BuGly)-P2(Hyp(O—CO(NH—(2-methylbenzyl))))-P1(1R,2S VinylAcca)—CONHSO2Cyclopropane], in that order: 100 to 1000 nM and 1000 to 10000 nM.
For `C=CC1C[C@]1(NC(=O)[C@@H]1C[C@@H](OC(=O)Nc2cc(C(F)(F)F)ccc2-n2cccc2)CN1C(=O)[C@@H](NC(=O)OC(C)(C)C)C(C)(C)C)C(=O)NS(=O)(=O)C1CC1` (some centres unmarked) [Compound 85], in that order: less than 100 nM and 100 to 1000 nM.
For `C=CC1C[C@]1(NC(=O)[C@@H]1C[C@@H](OC(=O)Nc2ccccc2OCC)CN1C(=O)[C@@H](NC(=O)OC(C)(C)C)C(C)(C)C)C(=O)NS(=O)(=O)C1CC1` (stereo partly drawn) [Compound 56, BocNH-P3(t-BuGly)-P2(Hyp(O—CO(NH—(2-ethoxy-phenyl))))-P1(1R,2S VinylAcca)—CONHSO2Cyclopropane], in that order: less than 100 nM and 100 to 1000 nM.
For the compound `C=CC1C[C@]1(NC(=O)[C@@H]1C[C@@H](OC(=O)Nc2cc(C(C)=O)ccc2N2CCC(C(=O)OCC)CC2)CN1C(=O)[C@@H](NC(=O)OC(C)(C)C)C(C)(C)C)C(=O)NS(=O)(=O)C1CC1` (stereo partly drawn) [Compound 76, BocNH-P3(t-BuGly)-P2(Hyp(O—CO(NH-2-(1-(4-acetyl-phenyl))-piperidine-4-carboxylic acid ethyl ester)))-P1(1R,2S VinylAcca)—CONHSO2Cyclopropane], the IC50 in test [1] is less than 100 nM. In addition, in test [2], the EC50 lay within 100 to 1000 nM.
For `C=CC1C[C@]1(NC(=O)[C@@H]1C[C@@H](OC(=O)Nc2ccccc2F)CN1C(=O)[C@@H](NC(=O)OC(C)(C)C)C(C)(C)C)C(=O)NS(=O)(=O)C1CC1` (stereo partly drawn) [Compound 51, BocNH-P3(t-BuGly)-P2(Hyp(O—CO(NH—(2-fluoro-phenyl))))-P1(1R,2S VinylAcca)—CONHSO2Cyclopropane], in that order: 100 to 1000 nM and 1000 to 10000 nM.
For `C=CC1C[C@]1(NC(=O)[C@@H]1C[C@@H](OC(=O)Nc2ccccc2SC)CN1C(=O)[C@@H](NC(=O)OC(C)(C)C)C(C)(C)C)C(=O)NS(=O)(=O)C1CC1` (stereo partly drawn) [Compound 29, BocNH-P3(t-BuGly)-P2(Hyp(O—CO(NH—(2-methylsulfanyl-phenyl))))-P1(1R,2S VinylAcca)—CONHSO2Cyclopropane], in that order: less than 100 nM and 100 to 1000 nM.
Take `C=CC1C[C@]1(NC(=O)[C@@H]1C[C@@H](OC(=O)Nc2ccccc2C(=O)OCCCC)CN1C(=O)[C@@H](NC(=O)OC(C)(C)C)C(C)(C)C)C(=O)NS(=O)(=O)C1CC1` (stereo partly drawn) [Compound 64, BocNH-P3(t-BuGly)-P2(Hyp(O—CO(NH—(2-benzoic acid butyl ester))))-P1(1R,2S VinylAcca)—CONHSO2Cyclopropane]: the IC50 in test [1] is less than 100 nM. The half-maximal effective concentration (EC50) in test [2] was in the range of 100 to 1000 nM.
